Assay results published in patent publication US4053604A (priority 1975, dated 1977).
Entries after “also recorded” stand apart in the source; their conditions may differ.

Key:
[1] = in words; cited from earlier work
[2] = anesthesia time of rats exposed to halothane anesthesia (recovery of righting reflex); format: in vivo, male albino rats (Sprague-Dawley)
Experimental: The effects of Compound I on halothane-induced anesthesia were assessed using 20 rats for each dose or time interval determination. The experiments were performed on male albino rats (Sprague-Dawley) weighing from 180-220 g. A schematic representation of the apparatus used is illustrated in FIG. 1. The apparatus consists of a rectangular box made of transparent plastic (115 cm long × 28 cm high × 28 cm wide) which is divided into 4 equal chambers by perforated walls. The box rotates around a hollow axis through which gases can be delivered at several proportions from cylinders, through their respective flowmeters. An in-line halothane vaporizer is placed just before the gases reach the chambers. There is an air-tight door to every chamber through which two animals, one treated and one control, are introduced. The gases are delivered at one end of the box and suction is applied to the other end to take up the gases after flowing through the chambers. An in-line water manometer monitors the resulting pressure. This pressure is kept at 0-5 mm H2 O to make certain the gases in the anesthetic chambers remain at atmospheric pressure. The mixture of gases is delivered at a rate of 15 l/min. The inhalation anesthetic gases are delivered for ten minutes prior to the introduction of the animals into the chambers to assure an even distribution in the four chambers. The chambers rotate at four rev/min forcing the animals to tumble and allowing the experimenter to accurately time the loss and recovery of the righting reflex. Induction times are recorded as the time interval elapsed between the beginning of exposure of the animals to the gases and the moment in which they lose their righting reflex.
Groups of control animals (four at a time) were subjected to halothane concentrations ranging from 0.5 to 2.5% in a mixture of 95% O2 -5% CO2, and the induction times thus obtained were used to calculate concentration-reponse curves. Since a certain time elapsed between putting the first and the last rat into their respective chambers, each animal was timed separately with a stopwatch. […] This intermediate concentration of halothane was then used to study the effects of increasing doses of the test compound on the induction times and anesthesia times.
The animals were pretreated by administering the test compounds in dosages ranging from 10 to 500 μg/kg, i.v., at 5, 30, 60, 120, 240 and 360 minutes prior to their exposure to halothane. As soon as all animals lost their righting reflex, the O2 -halothane flow was discontinued and replaced by an equal flow of air. The animals were allowed to remain in the rotating chambers until they regained their righting reflex. Anesthesia times were determined as the interval between the time required to lose and the time to regain the righting reflex. Air flushing of the anesthetic chambers was performed after each determination and the entire procedure repeated with another group of animals for the determination of the effect of a new dose or concentration.
Drugs used in this study include: droperidol, phenoperidine hydrochloride, halothane and Compound I in the form of its hydrochloride salt. Phenoperidine hydrochloride and Compound I (hydrochloride) were dissolved separately in a warm solution of 0.9% sodium chloride. Droperidol was suspended in saline with the aid of a drop ot Tween 80 (Tween 80 is a registered trademark for a complex mixture of polyoxyethylene ethers of mixed partial oleic esters of sorbitol anhydride). Dosages are expressed in this study as the salt form of the compound where applicable. When the experimental protocol called for the concomitant administration of two drugs, these were mixed in the syringe and administered intravenously. The drugs were injected in a volume of 0.1 ml/100 g body weight.
The statistical analysis of the data was performed using Student's […]. […]

[3] = onset, duration of activity and cardiovascular effect (general statement); format: in vivo
[4] = tail-flick test, potentiation of the analgesic activity of phenoperidine; format: in vivo, albino mice
Excerpt: In the following experiments, phenoperidine and Compound I are used in the form of their hydrochloride salt and droperidol in the form of its free base in the presence of lactic acid for adjustment to pH to 3.4. Results are expressed on the basis of the form of the drug employed (i.e., free base or hydrochloride salt).
Results of such tests using albino mice are illustrated by tables 1,2 and 3 in which the neuroleptic agent, droperidol, is included for comparative purposes.
Potentiation of the Analgesic Activity (ED50) of Phenoperidine,
i.e. 0.5 mg/kg, by varying Doses of Neuroleptic Agents.
*PD50 refers to the dose of the neuroleptic which increased the
analgesic activity (ED50) of phenoperidine by 50%.
Modified Analgesic Activity of Phenoperidine in
the Presence of the Neuroleptic PD50. -
*ED50 refers to the analgesic activity of phenoperidine after
pretreatment with a fixed dose (PD50) of the neuroleptic agents.

## CC(C)[C@@]1(O)CCN2C[C@@H]3c4ccccc4CCc4cccc(c43)[C@H]2C1 [Compound 1, (+)(4a,13b-trans)-(3-hydroxy,13b-trans)-3-isopropyl-2,- 3,4,4a,8,9,13b,14-octahydro-lH-benzo[6,7]cyclohepta[1,2,3-de]pyrido[2,1-a]isoquinolin-3-ol]
[1]
  neuroleptic potency: potent neuroleptic agent
[2]; 10 μg/kg i.v., 5 min before 0.75% halothane
  Anesthesia time, treated: 3.67 min
[2]; 10 μg/kg i.v., 5 min before 1.0% halothane
  Anesthesia time, treated: 3.16 min
[2]; 10 μg/kg i.v., 5 min before 1.5% halothane
  Anesthesia time, treated: 3.84 min
[2]; 10 μg/kg i.v., 5 min before 2.0% halothane
  Anesthesia time, treated: 4.68 min
[2]; 10 μg/kg i.v., 5 min before 2.5% halothane
  Anesthesia time, treated: 5.42 min
[2]; 25 μg/kg i.v., 5 min before 0.75% halothane
  Anesthesia time, treated: 3.78 min
[2]; 25 μg/kg i.v., 5 min before 1.0% halothane
  Anesthesia time, treated: 3.62 min
[2]; 25 μg/kg i.v., 5 min before 1.5% halothane
  Anesthesia time, treated: 4.61 min
[2]; 25 μg/kg i.v., 5 min before 2.0% halothane
  Anesthesia time, treated: 5.09 min
[2]; 25 μg/kg i.v., 5 min before 2.5% halothane
  Anesthesia time, treated: 5.26 min
[2]; 50 μg/kg i.v., 5 min before 0.75% halothane
  Anesthesia time, treated: 5.16 min
[2]; 50 μg/kg i.v., 5 min before 1.0% halothane
  Anesthesia time, treated: 4.67 min
[2]; 50 μg/kg i.v., 5 min before 1.5% halothane
  Anesthesia time, treated: 4.59 min
[2]; 50 μg/kg i.v., 5 min before 2.0% halothane
  Anesthesia time, treated: 4.49 min
[2]; 50 μg/kg i.v., 5 min before 2.5% halothane
  Anesthesia time, treated: 4.96 min
[2]; 100 μg/kg i.v., 5 min before 0.75% halothane
  Anesthesia time, treated: 6.33 min
[2]; 100 μg/kg i.v., 5 min before 1.0% halothane
  Anesthesia time, treated: 5.34 min
[2]; 100 μg/kg i.v., 5 min before 1.5% halothane
  Anesthesia time, treated: 4.79 min
[2]; 100 μg/kg i.v., 5 min before 2.0% halothane
  Anesthesia time, treated: 5.49 min
[2]; 100 μg/kg i.v., 5 min before 2.5% halothane
  Anesthesia time, treated: 5.62 min
[2]; 200 μg/kg i.v., 5 min before 0.75% halothane
  Anesthesia time, treated: 6.54 min
[2]; 200 μg/kg i.v., 5 min before 1.0% halothane
  Anesthesia time, treated: 5.37 min
[2]; 200 μg/kg i.v., 5 min before 1.5% halothane
  Anesthesia time, treated: 4.94 min
[2]; 200 μg/kg i.v., 5 min before 2.0% halothane
  Anesthesia time, treated: 5.33 min
[2]; 200 μg/kg i.v., 5 min before 2.5% halothane
  Anesthesia time, treated: 5.89 min
[2]; 250 μg/kg i.v., 5 min before 0.75% halothane
  Anesthesia time, treated: 6.26 min
[2]; 250 μg/kg i.v., 5 min before 1.0% halothane
  Anesthesia time, treated: 5.81 min
[2]; 250 μg/kg i.v., 5 min before 1.5% halothane
  Anesthesia time, treated: 5.52 min
[2]; 250 μg/kg i.v., 5 min before 2.0% halothane
  Anesthesia time, treated: 5.92 min
[2]; 250 μg/kg i.v., 5 min before 2.5% halothane
  Anesthesia time, treated: 6.37 min
[2]; 500 μg/kg i.v., 5 min before 1.0% halothane
  Anesthesia time, treated: 5.69 min
[2]; five minutes after i.v. administration, 1% halothane
  increase of anesthesia time: approximately 70%
[2]; halothane, in words
  effect on anesthesia time: increased considerably
[2]; plus 25 μg/kg i.v. phenoperidine hydrochloride, 1% halothane (FIG. 3), in words
  duration of anesthesia effect with added analgesic: potentiates the duration of anesthesia effect
[3]; alone or in combination with a suitable analgesic agent, in words
  effect on the cardiovascular system: little or no effect on the cardiovascular system
[3]; in words
  onset of action: quick onset of action
[3]; relatively short duration
  duration of activity: up to four
[4]; in words
  relative potentiating activity, Compound I versus droperidol: equiactive
[4]; in words, listed as Compound I
  enhancement of analgesic activity of phenoperidine by concomitant administration: well defined potentiating effect on analgesic agents; also recorded: significantly enhanced
[4]; mouse, in vivo, ip
  PD50 of Neuroleptic Agent (dose which increased the analgesic activity (ED50) of phenoperidine by 50%): 0.56 ± 0.06 mg/kg
